From patent US10494378B2, “Fused ring pyrimidine compound, intermediate, and preparation method, composition and use thereof” (GUANGZHOU MAXINOVEL PHARMACEUTICALS CO., LTD., priority 2015, dated 2019)

What was measured:
Assay type in all cases: biochemical
JAK2 kinase = biological target: T1, JAK2 kinase (Homo sapiens, UniProt O60674); assay: IC50 evaluation assay on JAK2 kinase inhibition (Caliper); settings: adenosine triphosphate at Km; 1 hour at 28° C.; average of two tests; read-out: IC50 (nM) inhibiting JAK 2 kinase
T1 construct: purchased Carna 08-045
T1 sequence (O60674 whole entry): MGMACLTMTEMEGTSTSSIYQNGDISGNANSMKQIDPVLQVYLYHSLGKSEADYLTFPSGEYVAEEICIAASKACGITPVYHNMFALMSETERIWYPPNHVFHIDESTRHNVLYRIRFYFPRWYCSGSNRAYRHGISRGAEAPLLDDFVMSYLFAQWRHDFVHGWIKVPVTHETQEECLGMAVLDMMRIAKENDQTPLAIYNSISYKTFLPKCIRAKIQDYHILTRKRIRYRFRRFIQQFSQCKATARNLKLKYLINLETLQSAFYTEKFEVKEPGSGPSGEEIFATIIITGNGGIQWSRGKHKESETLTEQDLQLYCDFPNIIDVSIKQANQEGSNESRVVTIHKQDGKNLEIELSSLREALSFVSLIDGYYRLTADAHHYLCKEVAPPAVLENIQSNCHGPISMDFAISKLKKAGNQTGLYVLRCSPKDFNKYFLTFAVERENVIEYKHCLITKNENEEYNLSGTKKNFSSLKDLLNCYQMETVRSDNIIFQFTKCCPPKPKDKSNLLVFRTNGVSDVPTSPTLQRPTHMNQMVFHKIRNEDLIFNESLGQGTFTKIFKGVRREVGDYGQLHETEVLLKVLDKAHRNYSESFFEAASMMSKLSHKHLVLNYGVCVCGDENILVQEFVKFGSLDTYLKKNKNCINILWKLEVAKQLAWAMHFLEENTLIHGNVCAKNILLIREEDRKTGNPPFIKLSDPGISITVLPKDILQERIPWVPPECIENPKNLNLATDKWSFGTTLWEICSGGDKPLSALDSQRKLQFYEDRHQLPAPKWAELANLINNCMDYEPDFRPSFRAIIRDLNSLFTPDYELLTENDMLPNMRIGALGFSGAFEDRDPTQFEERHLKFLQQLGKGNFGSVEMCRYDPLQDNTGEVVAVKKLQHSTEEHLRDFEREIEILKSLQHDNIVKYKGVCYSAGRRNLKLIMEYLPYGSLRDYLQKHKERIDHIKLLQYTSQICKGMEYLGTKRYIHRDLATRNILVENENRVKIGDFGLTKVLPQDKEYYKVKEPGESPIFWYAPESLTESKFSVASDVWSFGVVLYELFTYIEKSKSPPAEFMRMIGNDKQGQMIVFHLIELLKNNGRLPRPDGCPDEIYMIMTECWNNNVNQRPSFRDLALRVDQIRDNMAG
Experimental: (§1) 1. The compound was dissolved in 100% DMSO, diluted into solutions with appropriate concentration gradients with water according to experimental requirement, and added to a 384-well plate.
(§2) 2. JAK2 kinase (Carna, Cat. No. 08-045, Lot. No. 07CBS-1927) and JAK3 kinase (Carna, Cat. No. 08-046, Lot. No. 08CBS-0371) were diluted to the optimum concentration with the following buffer solution: 50 mM HEPES, pH 7.5, 0.0015% Brij-35, 2 mM DTT. JAK1 kinase (Carna, Cat. No. 08-144, Lot. No. 11CBS-0144D) was diluted to the optimum concentration with the following buffer solution: 25 mM HEPES pH 7.5, 0.01% Brij-35, 2 mM DTT, 0.01M Triton. Transfer to the 384-well plate and incubated with the compound for a period of time.
(§3) 3. […] The substrate of JAK1 was diluted to the optimum concentration with the following buffer: 25 mM HEPES, pH 7.5, 0.01% Brij-35, 10 mM MgCl2, 0.01M Triton, adenosine triphosphate at Km. Add to the 384-well plate to initiate there action and react for 1 hour at 28° C.
(§4) 4. 1 Eq. of sulfuric acid solution was added to terminate the reaction, the conversion rate was read with Caliper Reader. The inhibition rate was calculated as the average of two tests.

JAK1 kinase = biological target: T2, JAK1 kinase (Homo sapiens, UniProt P23458); assay: IC50 evaluation assay on JAK1 kinase inhibition (Caliper); settings: adenosine triphosphate at Km; 1 hour at 28° C.; average of two tests; read-out: IC50 (nM) inhibiting JAK 1 kinase
T2 construct: purchased Carna 08-144
T2 sequence (P23458 whole entry): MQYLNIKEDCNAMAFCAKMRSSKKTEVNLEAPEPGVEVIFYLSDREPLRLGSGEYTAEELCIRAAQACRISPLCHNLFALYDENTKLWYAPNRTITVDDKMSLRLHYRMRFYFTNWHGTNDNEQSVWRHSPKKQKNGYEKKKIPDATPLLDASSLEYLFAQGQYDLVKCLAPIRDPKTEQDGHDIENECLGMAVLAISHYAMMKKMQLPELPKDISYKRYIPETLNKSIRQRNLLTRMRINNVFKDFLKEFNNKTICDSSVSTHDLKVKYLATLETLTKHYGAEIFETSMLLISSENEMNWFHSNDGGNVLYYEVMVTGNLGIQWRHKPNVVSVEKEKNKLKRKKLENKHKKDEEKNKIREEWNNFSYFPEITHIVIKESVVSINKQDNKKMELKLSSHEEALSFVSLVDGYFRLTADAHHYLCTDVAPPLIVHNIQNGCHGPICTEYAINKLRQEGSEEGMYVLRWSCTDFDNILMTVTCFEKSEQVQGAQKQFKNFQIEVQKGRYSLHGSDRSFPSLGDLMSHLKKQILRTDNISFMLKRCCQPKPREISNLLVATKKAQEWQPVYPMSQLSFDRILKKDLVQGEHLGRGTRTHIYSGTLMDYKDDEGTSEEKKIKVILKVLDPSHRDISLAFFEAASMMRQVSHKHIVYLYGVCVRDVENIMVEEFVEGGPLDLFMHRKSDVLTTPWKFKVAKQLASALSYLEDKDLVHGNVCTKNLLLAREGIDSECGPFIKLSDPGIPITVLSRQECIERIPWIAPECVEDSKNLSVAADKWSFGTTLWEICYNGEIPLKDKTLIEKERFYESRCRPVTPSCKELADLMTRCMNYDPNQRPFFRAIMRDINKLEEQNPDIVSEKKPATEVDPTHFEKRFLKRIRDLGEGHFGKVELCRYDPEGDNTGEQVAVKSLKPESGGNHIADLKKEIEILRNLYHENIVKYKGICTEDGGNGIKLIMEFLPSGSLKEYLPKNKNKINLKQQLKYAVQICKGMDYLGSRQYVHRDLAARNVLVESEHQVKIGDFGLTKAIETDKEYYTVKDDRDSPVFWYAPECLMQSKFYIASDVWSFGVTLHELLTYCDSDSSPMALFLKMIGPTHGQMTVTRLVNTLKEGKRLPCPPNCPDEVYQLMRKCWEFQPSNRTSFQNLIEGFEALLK
Experimental: as §1, §2, §3, §4

JAK3 kinase = biological target: T3, JAK3 kinase (Homo sapiens, UniProt P52333); assay: IC50 evaluation assay on JAK3 kinase inhibition (Caliper); settings: adenosine triphosphate at Km; 1 hour at 28° C.; average of two tests; read-out: IC50 (nM) inhibiting JAK 3 kinase
T3 construct: purchased Carna 08-046
T3 sequence (P52333 1-1124): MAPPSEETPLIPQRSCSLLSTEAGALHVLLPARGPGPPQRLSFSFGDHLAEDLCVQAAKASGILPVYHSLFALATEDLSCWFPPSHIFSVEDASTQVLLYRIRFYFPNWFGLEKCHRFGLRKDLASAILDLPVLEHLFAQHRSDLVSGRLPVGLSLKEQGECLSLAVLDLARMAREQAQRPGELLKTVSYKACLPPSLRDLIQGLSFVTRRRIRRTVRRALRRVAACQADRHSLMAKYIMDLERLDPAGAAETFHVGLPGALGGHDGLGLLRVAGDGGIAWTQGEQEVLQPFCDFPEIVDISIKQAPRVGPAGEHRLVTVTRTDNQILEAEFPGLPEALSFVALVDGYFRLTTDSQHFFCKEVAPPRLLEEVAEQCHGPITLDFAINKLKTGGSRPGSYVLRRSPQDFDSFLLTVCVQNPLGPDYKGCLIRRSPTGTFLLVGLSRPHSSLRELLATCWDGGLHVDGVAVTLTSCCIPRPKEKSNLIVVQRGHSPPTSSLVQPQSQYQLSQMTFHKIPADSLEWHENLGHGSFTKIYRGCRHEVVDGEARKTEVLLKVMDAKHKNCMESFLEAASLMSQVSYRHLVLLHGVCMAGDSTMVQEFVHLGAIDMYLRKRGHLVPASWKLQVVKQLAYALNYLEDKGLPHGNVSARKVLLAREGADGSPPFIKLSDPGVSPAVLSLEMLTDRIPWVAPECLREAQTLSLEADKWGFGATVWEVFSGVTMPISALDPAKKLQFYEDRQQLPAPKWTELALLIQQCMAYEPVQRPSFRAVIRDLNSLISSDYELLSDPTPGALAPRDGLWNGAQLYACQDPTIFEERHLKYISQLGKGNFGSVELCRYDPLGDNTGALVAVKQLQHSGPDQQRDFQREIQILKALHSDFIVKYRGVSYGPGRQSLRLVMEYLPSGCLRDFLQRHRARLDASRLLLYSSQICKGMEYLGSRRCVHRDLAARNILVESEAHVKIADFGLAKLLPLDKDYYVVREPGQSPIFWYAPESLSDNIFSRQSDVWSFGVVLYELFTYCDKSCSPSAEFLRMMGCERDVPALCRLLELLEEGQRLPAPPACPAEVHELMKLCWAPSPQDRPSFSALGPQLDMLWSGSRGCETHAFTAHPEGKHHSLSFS
Experimental: as §1, §2, §3, §4

Work on `COc1cc(OCCCN2CCCC2)ccc1-c1c(C)sc2cnc(Nc3cnn(C)c3)nc12` [Compound 18, N-(7-{2-methoxy-4-[3-(1-pyrrolidinyl)propoxy]phenyl}-6-methylthieno[3,2-d]pyrimidinyl-2-yl)-1-methyl-1H-pyrazol-4-amine] yielded an IC50 (JAK2 kinase) of 4.3 nM, an IC50 (JAK1 kinase) of 20 nM and an IC50 (JAK3 kinase) of 4.5 nM.
With `COc1ccccc1-c1c(C)sc2cnc(Nc3cnn(CCN4CCN(C)CC4)c3)nc12` [Compound 22] the IC50 (JAK2 kinase) was 1.7 nM, the IC50 (JAK1 kinase) was 43 nM and the IC50 (JAK3 kinase) was 1.5 nM.
`COc1cc(OCCCN2CCOCC2)ccc1-c1c(C)sc2cnc(Nc3cnn(C)c3)nc12` [Compound 17, N-(7-{2-methoxy-4-[3-(4-morpholinyl)propoxy]phenyl}-6-methylthieno[3,2-d]pyrimidinyl-2-yl)-1-methyl-1H-pyrazol-4-amine] was tested, and the IC50 (JAK2 kinase) was 2.3 nM, the IC50 (JAK1 kinase) was 16 nM and the IC50 (JAK3 kinase) was 1.3 nM.
In the case of `Cc1sc2cnc(Nc3cnn(C)c3)nc2c1-c1ccccc1N(C)C` [Compound 41, N-{7-[2-(dimethylamino)phenyl]-6-methylthieno[3,2-d]pyrimidin-2-yl}-1-methyl-1H-pyrazol-4-amine], the IC50 (JAK2 kinase) is reported as 36 nM, the IC50 (JAK1 kinase) is reported as 41 nM and the IC50 (JAK3 kinase) is reported as 33.7 nM.
`COc1ccccc1-c1c(C)sc2cnc(Nc3cnn(C4CCNCC4)c3)nc12` [Compound 35, N-[7-(2-methoxyphenyl)-6-methylthieno[3,2-d]pyrimidinyl-2-yl]-1-(piperidinyl-4-yl)-1H-pyrazol-4-amine] showed an IC50 (JAK2 kinase) of 0.7 nM, an IC50 (JAK1 kinase) of 3.8 nM and an IC50 (JAK3 kinase) of 0.84 nM.
Work on `Cc1sc2cnc(Nc3cnn(C)c3)nc2c1-c1cccc2c1OCC2` [Compound 2, N-[7-(2,3-dihydro-1-benzofuran-7-yl)-6-methylthieno[3,2-d]pyrimidinyl-2-yl]-1-methyl-1H-pyrazol-4-amine] yielded an IC50 (JAK2 kinase) of 1.8 nM, an IC50 (JAK1 kinase) of 14 nM and an IC50 (JAK3 kinase) of 0.99 nM.
For `COc1cc(S(C)(=O)=O)ccc1-c1cccc2cnc(Nc3cnn(C4CCNCC4)c3)nc12` [Compound 49, 8-(4-methylsulfonyl-2-methoxyphenyl)-N-[1-(4-piperidin)-1H-pyrazol-4-yl]quinazolin-2-amine], the IC50 (JAK2 kinase) was 2.1 nM, the IC50 (JAK1 kinase) was 58 nM and the IC50 (JAK3 kinase) was 9.8 nM.
For `Cc1sc2cnc(Nc3cnn(C)c3)nc2c1-c1cccc2c1OCO2` [Compound 30, N-[7-(2H-1,3-benzodioxol-4-yl)-6-methylthieno[3,2-d]pyrimidinyl-2-yl]-1-methyl-1H-pyrazol-4-amine], the IC50 (JAK2 kinase) was 1.9 nM, the IC50 (JAK1 kinase) was 8.5 nM and the IC50 (JAK3 kinase) was 5.1 nM.
In the case of `Cc1sc2cnc(Nc3cnn(C)c3)nc2c1-c1ccccc1OC(F)F` [Compound 10, N-{7-[2-(difluoromethoxy)phenyl]-6-methylthieno[3,2-d]pyrimidinyl-2-yl]-1-methyl-1H-pyrazol-4-amine], the IC50 (JAK2 kinase) is reported as 1.1 nM, the IC50 (JAK1 kinase) is reported as 10.6 nM and the IC50 (JAK3 kinase) is reported as 3.6 nM.
Work on `COc1ccccc1-c1c(C)sc2cnc(Nc3cnn(CCCN4CCCC4)c3)nc12` [Compound 26, N-[7-(2-methoxyphenyl)-6-methylthieno[3,2-d]pyrimidinyl-2-yl]-1-[3-(1-pyrrolidinyl)propyl]-1H-pyrazol-4-amine] yielded an IC50 (JAK2 kinase) of 1.6 nM, an IC50 (JAK1 kinase) of 12 nM and an IC50 (JAK3 kinase) of 1.6 nM.
`Cc1sc2cnc(Nc3cnn(C)c3)nc2c1-c1ccccc1OC(C)C` [Compound 29, 1-Methyl-N-{6-methyl-7-[2-(isopropoxy)phenyl]thieno[3,2-d]pyrimidinyl-2-yl]-1H-pyrazol-4-amine] showed an IC50 (JAK2 kinase) of 0.8 nM, an IC50 (JAK1 kinase) of 30.4 nM and an IC50 (JAK3 kinase) of 15.9 nM.
Work on `COc1cc(F)ccc1-c1c(C)sc2cnc(Nc3cnn(CCCN4CCCC4)c3)nc12` [Compound 27, N-[7-(4-fluoro-2-methoxyphenyl)-6-methylthieno[3,2-d]pyrimidinyl-2-yl]-1-[3-(1-pyrrolidinyl)propyl]-1H-pyrazol-4-amine] yielded an IC50 (JAK2 kinase) of 2.3 nM, an IC50 (JAK1 kinase) of 10 nM and an IC50 (JAK3 kinase) of 1.6 nM.
Work on `COc1ncccc1-c1c(C)sc2cnc(Nc3cnn(C)c3)nc12` [Compound 43] yielded an IC50 (JAK2 kinase) of 1.7 nM, an IC50 (JAK1 kinase) of 7.2 nM and an IC50 (JAK3 kinase) of 1 nM.
Work on `CN(c1ccccc1-c1csc2cnc(Nc3cnn(C)c3)nc12)S(C)(=O)=O` [Compound 28, N-methyl-N-(2-{2-[(1-methyl-1H-pyrazol-4-yl)amino]thieno[3,2-d]pyrimidinyl-7-yl}phenyl)methanesulfonamide] yielded an IC50 (JAK2 kinase) of 23 nM, an IC50 (JAK1 kinase) of 75.8 nM and an IC50 (JAK3 kinase) of 1.3 nM.
`COc1cc(OCCCN2CCC2)ccc1-c1c(C)sc2cnc(Nc3cnn(C)c3)nc12` [Compound 16] was tested, and the IC50 (JAK2 kinase) was 6.1 nM, the IC50 (JAK1 kinase) was 34 nM and the IC50 (JAK3 kinase) was 6.4 nM.
`COc1ccc(-c2c(C)sc3cnc(Nc4cnn(C)c4)nc23)c(OC)c1` [Compound 7, N-[7-(2,4-dimethoxyphenyl)-6-methylthieno[3,2-d]pyrimidinyl-2-yl]-1-methyl-1H-pyrazol-4-amine] was tested, and the IC50 (JAK2 kinase) was 1.2 nM, the IC50 (JAK1 kinase) was 13 nM and the IC50 (JAK3 kinase) was 1.8 nM.
With `COc1ccccc1-c1c(C)sc2cnc(Nc3cnn(C)c3)nc12` [Compound 1, N-[7-(2-methoxyphenyl)-6-methylthieno[3,2-d]pyrimidinyl-2-yl]-1-methyl-1H-pyrazol-4-amine] the IC50 (JAK2 kinase) was 1.7 nM, the IC50 (JAK1 kinase) was 6.8 nM and the IC50 (JAK3 kinase) was 1.7 nM.
With `COc1ccccc1-c1c(C)sc2cnc(Nc3cnn(CCO)c3)nc12` [Compound 21, 2-(4-{[7-(2-methoxyphenyl)-6-methylthieno[3,2-d]pyrimidinyl-2-yl]amino}-1H-pyrazol-1-yl)-1-ethanol] the IC50 (JAK2 kinase) was 0.31 nM, the IC50 (JAK1 kinase) was 1.3 nM and the IC50 (JAK3 kinase) was 0.39 nM.
`COc1cc(S(C)(=O)=O)ccc1-c1c(C)sc2cnc(Nc3cnn(C4CCNCC4)c3)nc12` [Compound 48, N-[7-(4-methylsulfonyl-2-methoxyphenyl)-6-methylthieno[3,2-d]pyrimidin-2-yl]-1-(4-piperidin)-1H-pyrazol-4-amine] gave an IC50 (JAK2 kinase) of 0.51 nM, an IC50 (JAK1 kinase) of 4.2 nM and an IC50 (JAK3 kinase) of 1.3 nM.
Compound `Cc1sc2cnc(Nc3cnn(C4CCOCC4)c3)nc2c1-c1cccc2c1OCC2` [Compound 39, N-[7-(2,3-dihydro-1-benzofuran-7-yl)-6-methylthieno[3,2-d]pyrimidin-2-yl]-1-(tetrahydropyran-4-yl)-1H-pyrazol-4-amine] has an IC50 (JAK2 kinase) of 1.6 nM, an IC50 (JAK1 kinase) of 18 nM and an IC50 (JAK3 kinase) of 0.71 nM.
Work on `COc1cc(O[C@@H]2CCOC2)ccc1-c1c(C)sc2cnc(Nc3cnn(C)c3)nc12` [Compound 12, N-(7-{2-methoxy-4-[(3R)-3-tetrahydrofuranoxyl]phenyl]-6-methylthieno[3,2-d]pyrimidinyl-2-yl]-1-methyl-1H-pyrazol-4-amine] yielded an IC50 (JAK2 kinase) of 1.8 nM, an IC50 (JAK1 kinase) of 12 nM and an IC50 (JAK3 kinase) of 1.4 nM.
In the case of `Cc1sc2cnc(Nc3cnn(C)c3)nc2c1-c1ccccc1Cl` [Compound 33, N-[7-(2-chlorophenyl)-6-methylthieno[3,2-d]pyrimidinyl-2-yl]-1-methyl-1H-pyrazol-4-amine], the IC50 (JAK2 kinase) is reported as 8.9 nM, the IC50 (JAK1 kinase) is reported as 18.5 nM and the IC50 (JAK3 kinase) is reported as 12.9 nM.
For `COc1cc(OCCCS(C)(=O)=O)ccc1-c1c(C)sc2cnc(Nc3cnn(CCO)c3)nc12` [Compound 24, 2-(4-{[7-(4-(3-methylsulfonylpropoxy)-2-methoxyphenyl]-6-methylthieno[3,2-d]pyrimidinyl-2-yl}amino)-1H-pyrazol-1-yl]-1-ethanol], the IC50 (JAK2 kinase) was 0.94 nM, the IC50 (JAK1 kinase) was 9 nM and the IC50 (JAK3 kinase) was 1.3 nM.
